Target: T1, HSL (Rattus norvegicus, UniProt P15304)
T1 construct: The partially purified HSL can be stored at −70° C. for 4 to 6 weeks; from tissue; host or cells: rat epididymal fat cells (male Wistar rats)
T1 sequence (P15304 1-768 isoform P15304-2): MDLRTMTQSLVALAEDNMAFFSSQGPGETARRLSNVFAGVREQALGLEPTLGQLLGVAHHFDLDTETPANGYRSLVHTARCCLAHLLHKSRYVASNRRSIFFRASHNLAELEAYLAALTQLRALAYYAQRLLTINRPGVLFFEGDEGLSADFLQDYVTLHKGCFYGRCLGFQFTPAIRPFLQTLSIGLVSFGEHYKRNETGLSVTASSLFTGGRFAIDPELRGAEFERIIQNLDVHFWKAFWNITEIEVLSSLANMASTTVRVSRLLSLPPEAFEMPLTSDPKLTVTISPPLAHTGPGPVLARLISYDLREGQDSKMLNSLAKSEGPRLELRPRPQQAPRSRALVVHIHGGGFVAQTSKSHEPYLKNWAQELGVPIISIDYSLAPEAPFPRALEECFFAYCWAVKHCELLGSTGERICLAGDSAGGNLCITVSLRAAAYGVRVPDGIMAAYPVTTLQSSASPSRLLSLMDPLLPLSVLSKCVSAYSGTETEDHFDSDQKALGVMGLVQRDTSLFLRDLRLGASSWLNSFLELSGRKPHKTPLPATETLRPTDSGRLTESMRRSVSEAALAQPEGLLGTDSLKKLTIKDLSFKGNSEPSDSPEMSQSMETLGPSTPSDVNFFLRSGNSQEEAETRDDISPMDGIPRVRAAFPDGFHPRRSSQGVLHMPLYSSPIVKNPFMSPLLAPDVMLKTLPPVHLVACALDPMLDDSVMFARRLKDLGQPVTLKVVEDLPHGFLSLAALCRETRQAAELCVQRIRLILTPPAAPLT
Experiment: Direct NAG assay (released NBD-FA, TLC/fluorimetry)
Assay type: biochemical
Settings: for Absorption change, Released NBD-FA, 550 nm: 60 min, NAG 0.05 mg/ml
Method: Isolated rat fat cells are obtained from epididymal fatty tissue from untreated male rats (Wistar, 220-250 g) by collagenase treatment according to published processes. The fat cells from 10 rats are washed three times by flotation with 50 ml each of homogenization buffer ([…], pH 7.4, 0.25 M sucrose, 1 mM ethylenediamine-N,N,N′,N′-tetraacetic acid (EDTA), 1 mM dithiothreitol (DTT), 10 μg/ml of leupeptin, 10 μg/ml of antipain, 20 μg/ml of pepstatin) and finally taken up in 10 ml of homogenization buffer. The fat cells are homogenized in a Teflon-in-glass homogenizer (Braun-Melsungen) by 10 strokes at 1500 rpm and 15° C. The homogenizate is centrifuged (Sorvall SM24 tubes, 5000 rpm, 10 min, 4° C.). The […] between the overlying fatty layer and the pellet is removed and the centrifugation is repeated. The […] resulting from this is centrifuged again (Sorvall SM24 tubes, 20,000 rpm, 45 min, 4° C.). […] After incubation for 60 min at 4° C. (shake at intervals of 15 min), the batch is centrifuged (Sorvall SM24 tubes, 3000 rpm, 10 min, 4° C.). The supernatant is brought to pH 5.2 by addition of glacial acetic acid and incubated at 4° C. for 30 min. The precipitates are collected by centrifugation (Sorvall SS34, 12,000 rpm, 10 min, 4° C.) and suspended in 2.5 ml of 20 mM TRIS/HCl, pH 7.0, 1 mM EDTA, 65 mM NaCl, 13% sucrose, 1 mM DTT, 10 μg/ml of leupeptin/pepstatin/antipain. The suspension is dialyzed overnight at 4° C. against 25 mM TRIS/HCl, pH 7.4, 50% glycerol, 1 mM DTT, and 10 μg/ml of leupeptin, pepstatin, and antipain and then applied to a hydroxylapatite column (0.1 g per 1 ml of suspension, equilibrated with 10 mM potassium phosphate, pH 7.0, 30% glycerol, 1 mM DTT). The column is washed with four volumes of equilibration buffer at a flow rate of 20 to 30 ml/h. The HSL is eluted with a volume of equilibration buffer which contains 0.5 M potassium phosphate, then dialyzed (see above) and concentrated 5 to 10 times by ultrafiltration (Amicon Diaflo PM 10 filter) at 4° C. The partially purified HSL can be stored at −70° C. for 4 to 6 weeks.
6 mg of phosphatidylcholine and 6 mg of phosphatidylinositol are dissolved in 1 ml of chloroform each. 10 mg of NAG are dissolved in 1 ml of chloroform. Two parts of phosphatidylinositol solution (e.g., 83.5 μl) and one part of phosphatidylcholine solution (e.g., 41.5 μl) and 100 μl of NAG solution are pipetted together into plastic scintillation containers (final concentration in the test: 0.0375 mg of phospholipid/ml; 0.05 mg/NAG/ml). The chloroform (225 μl total volume) is completely removed by overblowing with a stream of N2. The dried substrate can be stored at 4° C. for up to three days. For the preparation of the phospholipid vesicles/micelles having intercalated NAG (on the test day), the dried substrate is taken up in 20 ml of assay buffer (25 mM TRIS/HCl, pH 7.4; 150 mM NaCl) and two ultrasonic treatments with an ultrasonic probe (Branson Sonifier type 11, standard microtip): 1st treatment setting 2, 2×1 min, in between in each case 1 min on ice; 2nd treatment setting 4, 2×1 min, in between in each case 1 min on ice. During this procedure, the color of the substrate solution changed from yellow (extinction maximum 481 nm) to red (extinction maximum 550 nm) due to intercalation of NAG between the phospholipid molecules of the vesicles/micelles. Before use as a substrate (within the next 2 h), the solution is additionally incubated on ice for 15 min.
Altematively to the measurement of the extinction change of the substrate solution, the products of the HSL reaction are investigated by phase separation/thin-layer chromatography. For this, the incubation batch (200 μl total volume, see indirect NAG assay) is mixed in 2 ml Eppendorf vessels with 1.3 ml of methanol/chloroform/heptane (10:9:7) and then with 0.4 ml of 0.1 M NaOH. After intensive mixing (10 sec), the phase separation is initiated by centrifugation (800×g, 20 min, room temperature). […]

SMILES | IC50 [nM] | Absorption change, Released NBD-FA, 550 nm (HSL 1 μg) [arb. units] | Absorption change, Released NBD-FA, 550 nm (HSL 2 μg) [arb. units] | Absorption change, Released NBD-FA, 550 nm (HSL 5 μg) [arb. units] | Absorption change, Released NBD-FA, 550 nm (HSL 7.5 μg) [arb. units] | Absorption change, Released NBD-FA, 550 nm (HSL 10 μg) [arb. units] | Absorption change, Released NBD-FA, 550 nm (HSL 15 μg) [arb. units] | Absorption change, Released NBD-FA, 550 nm (HSL 20 μg) [arb. units] | Absorption change, Released NBD-FA, 550 nm (HSL 25 μg) [arb. units] | Absorption change, Released NBD-FA, 550 nm (HSL 30 μg) [arb. units] | Absorption change, Released NBD-FA, 550 nm (HSL 40 μg) [arb. units] | Absorption change, Released NBD-FA, 550 nm (HSL 60 μg) [arb. units] | Absorption change, Released NBD-FA, 550 nm (HSL 80 μg) [arb. units]
O=C(CCCCCCCCCCCNc1ccc([N+](=O)[O-])c2nonc12)OCC(O)CO (racemic) [Compound 3] | 1020 ± 250 |  |  |  |  |  |  |  |  |  |  |  | 
O=C(CCCCCCCCCCCNc1ccc([N+](=O)[O-])c2nonc12)OCC(O)CO (stereo not shown) [Compound (3)] |  | 17 ± 2 | 44 ± 5 | 103 ± 11 | 157 ± 21 | 215 ± 24 | 320 ± 29 | 432 ± 53 | 544 ± 61 | 616 ± 56 | 693 ± 67 | 733 ± 80 | 746 ± 98

— US6783949B1, “Processes for determining whether a test substance contains lipases or lipase inhibitors” (Aventis Pharma Deutschland GmbH, priority 1999, dated 2004)
